Article PMC10914734 (Signal Transduction and Targeted Therapy, 2024)
Like-named read-outs stand apart in the source and are kept apart here.

Tests used:
SARS-CoV-2 PsV = assay: microbe, parasite or virus in culture; assay type: cell-based; settings: Severe acute respiratory syndrome coronavirus 2, 293T/ACE2, read-out: EC50, SARS-CoV-2 PsV
HCoV-229E = assay: microbe, parasite or virus in culture; assay type: cell-based; settings: Human coronavirus 229E, Huh-7, read-out: EC50, authentic HCoV-229E
Human CTSC = Human CTSC (Homo sapiens, UniProt P53634); assay: biochemical
Chain of Human CTSC (P53634 25-463): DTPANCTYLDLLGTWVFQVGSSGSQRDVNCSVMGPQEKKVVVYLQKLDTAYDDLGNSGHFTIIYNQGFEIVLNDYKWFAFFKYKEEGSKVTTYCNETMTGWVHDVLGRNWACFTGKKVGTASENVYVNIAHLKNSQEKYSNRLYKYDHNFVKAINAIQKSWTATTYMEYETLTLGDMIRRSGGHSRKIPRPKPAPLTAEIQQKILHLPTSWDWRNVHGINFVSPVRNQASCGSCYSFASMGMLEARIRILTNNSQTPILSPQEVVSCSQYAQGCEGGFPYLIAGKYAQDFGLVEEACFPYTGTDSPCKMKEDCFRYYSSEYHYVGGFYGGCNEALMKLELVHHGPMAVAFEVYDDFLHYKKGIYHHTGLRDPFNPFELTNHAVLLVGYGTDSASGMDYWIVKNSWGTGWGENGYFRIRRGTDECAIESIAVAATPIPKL

Human CTSG = Human CTSG (Homo sapiens, UniProt P08311); assay: Protease panel, CTSG inhibition; assay type: biochemical; settings: at a concentration of 20 μM; read-out: Inhibition rate, Human CTSG
Chain of Human CTSG (P08311 21-255): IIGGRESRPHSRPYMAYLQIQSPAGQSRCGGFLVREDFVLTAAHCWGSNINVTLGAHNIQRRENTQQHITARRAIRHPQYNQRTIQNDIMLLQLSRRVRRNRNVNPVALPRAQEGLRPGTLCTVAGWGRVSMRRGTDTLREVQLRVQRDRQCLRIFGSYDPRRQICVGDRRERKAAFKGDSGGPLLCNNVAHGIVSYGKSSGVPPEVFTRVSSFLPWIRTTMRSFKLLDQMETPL

Human CTSX = Human CTSX (Homo sapiens, UniProt Q9UBR2); assay: biochemical
Chain of Human CTSX (Q9UBR2 62-303): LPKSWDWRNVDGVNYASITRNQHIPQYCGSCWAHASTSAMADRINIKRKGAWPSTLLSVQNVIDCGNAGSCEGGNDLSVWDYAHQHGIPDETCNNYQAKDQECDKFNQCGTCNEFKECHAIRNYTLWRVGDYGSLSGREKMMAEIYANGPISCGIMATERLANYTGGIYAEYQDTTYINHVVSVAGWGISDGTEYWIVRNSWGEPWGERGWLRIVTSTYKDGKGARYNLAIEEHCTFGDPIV

Human Caspase 3 = Human Caspase 3 (Homo sapiens, UniProt P42574); assay: Protease panel, caspase 3 inhibition; assay type: biochemical; settings: at a concentration of 20 μM; read-out: Inhibition rate, Human Caspase 3
Chain of Human Caspase 3 (P42574 29-175 limits assumed): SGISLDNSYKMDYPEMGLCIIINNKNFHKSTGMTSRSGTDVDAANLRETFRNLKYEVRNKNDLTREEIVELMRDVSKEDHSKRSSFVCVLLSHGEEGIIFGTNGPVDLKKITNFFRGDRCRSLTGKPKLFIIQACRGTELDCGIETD
Chain of Human Caspase 3 (P42574 176-277 limits assumed): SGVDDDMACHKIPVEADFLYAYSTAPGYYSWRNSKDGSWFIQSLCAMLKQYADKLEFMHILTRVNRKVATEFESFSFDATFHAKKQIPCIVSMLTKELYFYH

Human Elastase = assay: Protease panel, elastase inhibition; assay type: biochemical; settings: at a concentration of 20 μM
Human Trypsin = assay: Protease panel, trypsin inhibition; assay type: biochemical; settings: at a concentration of 20 μM
SARS-CoV-2 PL^pro = SARS-CoV-2 PL^pro (Severe acute respiratory syndrome coronavirus 2, UniProt P0DTD1); assay: biochemical; assay type: biochemical; settings: at a concentration of 20 μM; for inhibition at 20 µM: read-out: Inhibition rate, SARS-CoV-2 PL^pro
Pharmacokinetics in dogs = assay type: in vivo; settings: for AUC(0-t) / clearance / half-life / AUC(0-inf) / MRT inf / Cmax / Tmax / bioavailability: male, Beagle, dog, plasma; for AUC(0-inf): read-out: AUCINF_obs; for MRT inf: read-out: MRTINF_obs
Description: Three groups of male Beagle dogs weighing 9 to 12 kg (2 animals per group) were intravenously (1 mg/kg), subcutaneously (1 mg/kg) and orally (5 mg/kg) dosed 14a in a vehicle consisting of 5% dimethyl sulfoxide, 7.5% Kolliphor HS 15 and 87.5% saline (volume ratio). Serial blood samples were collected at 0.083, 0.25, 0.75, 2.0, 4.0, 6.0, 8.0 and 24.0 h for the intravenous and […] groups and 0.25, 0.5, 1.0, 2.0, 4.0, 6.0, 8.0 and 24.0 h for the oral group after dose administration. Two groups of male Beagle dogs weighing 9 to 12 kg (3 animals per group) were intravenously (1 mg/kg) and subcutaneously (1 mg/kg) dosed 14b in a vehicle consisting of 5% dimethyl sulfoxide, 5% ethanol, 40% polyethylene glycol 400 and 50% saline (volume ratio). Serial blood samples were collected at 0.083, 0.25, 0.50, 1.00, 2.00, 4.00, 8.00 and 24.0 h after dose administration. A group of 3 male Beagle dogs weighing 9 to 12 kg was administered an oral dose of 5 mg/kg 14b in a vehicle consisting of 5% dimethyl sulfoxide and 95% hydroxypropyl methyl cellulose solution (0.5% hydroxypropyl methyl cellulose in deionized water in weight ratio) (volume ratio). Serial blood samples were collected at 0.25, 0.50, 1.00, 2.00, 4.00, 8.00 and 24.0 h after dose administration. All blood samples were obtained by centrifugation and stored at -20 °C until analysis.
Plasma compound concentrations were obtained through HPLC-MS/MS, and the pharmacokinetics parameters were analyzed by Phoenix WinNonlin 7.0. The following parameters were determined: Cmax (maximal concentration of drug in plasma), AUClast or AUCINF_obs (area under the concentration curve from the time of dosing to the last measurable concentration or from the time of dosing to infinity, respectively). Tmax (time of maximum observed concentration), T1/2 (half-life of elimination), MRTINF_obs (mean residence time extrapolated to infinity for a substance administered by indicated dosing using observed last concentration), CL (total body clearance), Vss (volume of distribution at steady state) and F (absolute bioavailability, F = (AUCx × Di.v.)/( AUCi.v. × Dx) × 100%, where x is i.p., s.c. or p.o., and AUC is AUCINF_obs).The pharmacokinetic parameters were analyzed by Phoenix WinNonlin 7.0.

C57BL/6 mice = assay: In vivo acute toxicity study in mice; settings: oral, 1000 mg/kg/day and 2000 mg/kg/day; for Acute toxicity study, organs and tissues damage: at the end of observation; for Acute toxicity study, overall result: twice daily, observed 12 days
Description: C57BL/6 mice (aged 6–8 weeks, 16–25 g) consisting of half male and half female were used to assess toxicity of compounds 14a and 14b in vivo. Compounds, vehicle, dosage, and administration schemes are shown in Supplementary Table S6. In short, mice were treated with compounds 14a and 14b at the indicated doses by oral gavage and the mice were clinically observed for 12 days after administration, including body weights, food consumption, and general status. At the end of the studies, the mice were anesthetized by Zoletil 50, and the organ and tissue samples were observed by naked eyes.

[1] = test system: SARS-CoV-2-S-mediated cell-cell fusion; assay: SARS-CoV-2-S-mediated cell-cell fusion assay; assay type: cell-based
[2] = test system: LPS-induced expression of proinflammatory cytokines (IL-1β, IL-6) and chemokines (CCL3, CXCL10) in Raw 264.7 mouse macrophages; assay: Anti-inflammatory assay in LPS-stimulated Raw 264.7 cells (RT-qPCR); assay type: cell-based; settings: LPS 200 ng/mL 6 h, dose-dependent
Description: Mouse macrophage Raw 264.7 cells were incubated with compounds 14a or 14b at different doses for 2 h. Then, the cells were stimulated with LPS (200 ng/mL) for 6 h, followed by RT-qPCR analysis.
RNA isolation, cDNA synthesis, and RT-qPCR. Total RNA was isolated from cells using RNA extraction reagent (Vazyme, R401-01). cDNA was synthesized using the HiScript IIQ RT SuperMix (Vazyme, R223-01), according to manufacturer’s instructions. RT-qPCR was performed using ChamQ SYBR qPCR Master Mix (Vazyme, Q331-02) in a CFX96TM Real-Time PCR Detection System (Bio-Rad, Shanghai, China). The profile of thermal cycling consisted of initial denaturation at 95 °C for 30 s, 40 cycles at 95 °C for 5 s and 60 °C for 30 s. All primer sequences used in this study are listed in Supplementary Table S5.

Human CTSL = Human CTSL (Homo sapiens, UniProt P07711); assay: FRET-based cleavage assay, enzymatic inhibition of human CTSL
Chain of Human CTSL (P07711 114-333): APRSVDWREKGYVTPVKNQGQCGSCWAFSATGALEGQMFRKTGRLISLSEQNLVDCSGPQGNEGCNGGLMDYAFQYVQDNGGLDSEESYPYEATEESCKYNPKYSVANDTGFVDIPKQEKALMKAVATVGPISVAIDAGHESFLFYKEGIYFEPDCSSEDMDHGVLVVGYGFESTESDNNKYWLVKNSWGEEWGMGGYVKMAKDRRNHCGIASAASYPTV

`O=C(NCc1ccccc1)C(=O)[C@H](C[C@@H]1CCCNC1=O)NC(=O)[C@H](CC1CCCCC1)NC(=O)c1cc2ccccc2o1` [14b, N-((S)-1-(((S)-4-(benzylamino)-3,4-dioxo-1-((S)-2-oxopiperidin-3-yl)butan-2-yl)amino)-3-cyclohexyl-1-oxopropan-2-yl)benzofuran-2-carboxamide] showed an EC50 (SARS-CoV-2 PsV) of 0.61 ± 0.06 nM, an EC50 (HCoV-229E) of 20.6 ± 8.19 nM and an IC50 (Human CTSC; read-out: IC50, Human CTSC) of 66.2 ± 7.85 nM. For the same compound, the inhibition (Human CTSG) was 4 ± 4%, the IC50 (Human CTSX; read-out: IC50, Human CTSX) was 1310 nM and the inhibition (Human Caspase 3) was 39 ± 2%. For the same compound, the “Inhibition rate, Human Elastase” value (Human Elastase) was 2 ± 2%, the “Inhibition rate, Human Trypsin” value (Human Trypsin) was 1 ± 1% and the “Inhibitory activity against papain-like protease (PL^pro) (in words)” value (SARS-CoV-2 PL^pro) was “no inhibitory activity”. For the same compound, the inhibition at 20 µM (SARS-CoV-2 PL^pro) was 8 ± 1%, the Vss_obs (Pharmacokinetics in dogs; i.v. (1 mg/kg)) was 1.59 ± 0.557 L/kg and the AUC(0-t) (Pharmacokinetics in dogs; iv, i.v. (1 mg/kg)) was 544 ± 148 ng·h/mL. For the same compound, the clearance (Pharmacokinetics in dogs; iv, i.v. (1 mg/kg)) was 31.9 ± 7.8 mL/min/kg, the half-life (Pharmacokinetics in dogs; iv, i.v. (1 mg/kg)) was 1.07 ± 0.29 h and the AUC(0-inf) (Pharmacokinetics in dogs; iv, i.v. (1 mg/kg)) was 546 ± 148 ng·h/mL. For the same compound, the MRT inf (Pharmacokinetics in dogs; iv, i.v. (1 mg/kg)) was 0.82 ± 0.11 h, the AUC(0-t) (Pharmacokinetics in dogs; po, p.o. (5 mg/kg)) was 271 ± 166 ng·h/mL and the Cmax (Pharmacokinetics in dogs; po, p.o. (5 mg/kg)) was 235 ± 173 ng/mL. The Tmax (Pharmacokinetics in dogs; po, p.o. (5 mg/kg)) was 0.58 ± 0.38 h, the bioavailability (Pharmacokinetics in dogs; po, p.o. (5 mg/kg)) was 10% and the half-life (Pharmacokinetics in dogs; po, p.o. (5 mg/kg)) was 2 ± 0.85 h. For the same compound, the AUC(0-inf) (Pharmacokinetics in dogs; po, p.o. (5 mg/kg)) was 283 ng·h/mL, the MRT inf (Pharmacokinetics in dogs; po, p.o. (5 mg/kg)) was 2.19 ± 0.86 h and the AUC(0-t) (Pharmacokinetics in dogs; sc, s.c. (1 mg/kg)) was 948 ± 46 ng·h/mL. It also gave a Cmax (Pharmacokinetics in dogs; sc, s.c. (1 mg/kg)) of 151 ± 36 ng/mL, a Tmax (Pharmacokinetics in dogs; sc, s.c. (1 mg/kg)) of 2.08 ± 1.88 h and a bioavailability (Pharmacokinetics in dogs; sc, s.c. (1 mg/kg)) of 178%. It also gave a half-life (Pharmacokinetics in dogs; sc, s.c. (1 mg/kg)) of 3.19 ± 1.57 h, an AUC(0-inf) (Pharmacokinetics in dogs; sc, s.c. (1 mg/kg)) of 973 ± 54 ng·h/mL and an MRT inf (Pharmacokinetics in dogs; sc, s.c. (1 mg/kg)) of 4.69 ± 1.25 h. The “Acute toxicity study, abnormalities in body weights, food mean daily consumption and general status” value (C57BL/6 mice) was “No abnormalities”, the “Acute toxicity study, mortality” value (C57BL/6 mice) was “No mice died” and the “Acute toxicity study, organs and tissues damage” value (C57BL/6 mice) was “No obvious organs and tissues damage”. For the same compound, the “Acute toxicity study, overall result” value (C57BL/6 mice) was “No obvious toxicity”, the “Effect on SARS-CoV-2-S-mediated cell-cell fusion” value [1] was “no effect” and the “LPS-induced expression of proinflammatory cytokines (IL-1β, IL-6) and chemokines (CCL3, CXCL10)” value [2] was “significantly inhibited”. For the same compound, the IC50 (Human CTSL) was 6.88 ± 0.81 nM.

With `O=C(NCc1ccccc1)C(=O)[C@H](C[C@@H]1CCCNC1=O)NC(=O)[C@H](Cc1ccc(F)cc1)NC(=O)c1cc2ccccc2o1` [14a, N-((S)-1-(((S)-4-(benzylamino)-3,4-dioxo-1-((S)-2-oxopiperidin-3-yl)butan-2-yl)amino)-3-(4-fluorophenyl)-1-oxopropan-2-yl)benzofuran-2-carboxamide] the EC50 (SARS-CoV-2 PsV) was 3.33 ± 1.9 nM, the EC50 (HCoV-229E) was 19 ± 4.17 nM and the IC50 (Human CTSC) was 181 ± 30.4 nM. For the same compound, the inhibition (Human CTSG) was 20 ± 3%, the IC50 (Human CTSX) was 722 ± 108 nM and the inhibition (Human Caspase 3) was 25 ± 2%. For the same compound, the “Inhibition rate, Human Elastase” value (Human Elastase) was 5 ± 1%, the “Inhibition rate, Human Trypsin” value (Human Trypsin) was 3 ± 1% and the “Inhibitory activity against papain-like protease (PL^pro) (in words)” value (SARS-CoV-2 PL^pro) was “no inhibitory activity”. For the same compound, the inhibition at 20 µM (SARS-CoV-2 PL^pro) was 3 ± 2%, the Vss_obs (Pharmacokinetics in dogs; i.v. (1 mg/kg)) was 1.05 L/kg and the AUC(0-t) (Pharmacokinetics in dogs; iv, i.v. (1 mg/kg)) was 732 ng·h/mL. It also gave a clearance (Pharmacokinetics in dogs; iv, i.v. (1 mg/kg)) of 24.4 mL/min/kg, a half-life (Pharmacokinetics in dogs; iv, i.v. (1 mg/kg)) of 1.04 h and an AUC(0-inf) (Pharmacokinetics in dogs; iv, i.v. (1 mg/kg)) of 735 ng·h/mL. The MRT inf (Pharmacokinetics in dogs; iv, i.v. (1 mg/kg)) was 0.74 h, the AUC(0-t) (Pharmacokinetics in dogs; po, p.o. (5 mg/kg)) was 351 ng·h/mL and the Cmax (Pharmacokinetics in dogs; po, p.o. (5 mg/kg)) was 154 ng/mL. The Tmax (Pharmacokinetics in dogs; po, p.o. (5 mg/kg)) was 0.75 h, the bioavailability (Pharmacokinetics in dogs; po, p.o. (5 mg/kg)) was 10% and the half-life (Pharmacokinetics in dogs; po, p.o. (5 mg/kg)) was 1.33 h. The AUC(0-inf) (Pharmacokinetics in dogs; po, p.o. (5 mg/kg)) was 357 ng·h/mL, the MRT inf (Pharmacokinetics in dogs; po, p.o. (5 mg/kg)) was 1.86 h and the AUC(0-t) (Pharmacokinetics in dogs; sc, s.c. (1 mg/kg)) was 881 ng·h/mL. For the same compound, the Cmax (Pharmacokinetics in dogs; sc, s.c. (1 mg/kg)) was 116 ng/mL, the Tmax (Pharmacokinetics in dogs; sc, s.c. (1 mg/kg)) was 0.5 h and the bioavailability (Pharmacokinetics in dogs; sc, s.c. (1 mg/kg)) was 120%. For the same compound, the half-life (Pharmacokinetics in dogs; sc, s.c. (1 mg/kg)) was 3.96 h, the AUC(0-inf) (Pharmacokinetics in dogs; sc, s.c. (1 mg/kg)) was 893 ng·h/mL and the MRT inf (Pharmacokinetics in dogs; sc, s.c. (1 mg/kg)) was 5.14 h. The “Acute toxicity study, abnormalities in body weights, food mean daily consumption and general status” value (C57BL/6 mice) was “No abnormalities”, the “Acute toxicity study, mortality” value (C57BL/6 mice) was “No mice died” and the “Acute toxicity study, organs and tissues damage” value (C57BL/6 mice) was “No obvious organs and tissues damage”. The “Acute toxicity study, overall result” value (C57BL/6 mice) was “No obvious toxicity”, the “Effect on SARS-CoV-2-S-mediated cell-cell fusion” value [1] was “no effect” and the “LPS-induced expression of proinflammatory cytokines (IL-1β, IL-6) and chemokines (CCL3, CXCL10)” value [2] was “significantly inhibited”. It also gave an IC50 (Human CTSL) of 3.34 ± 0.52 nM.
